Laboratory results taken from US20250034185A1 (priority 2021, published 2025).

Tested on: plasma enzymes
Settings: Sprague Dawley, rat
Throughout, for P5P formed: test concentration or dose not given here.

| SMILES | P5P formed [µM] | relative P5P formed [%] |
| --- | --- | --- |
| Cc1ncc(COP(=O)(N[C@@H](C)C(=O)OC(C)C)Oc2ccccc2)c(CN)c1O (stereo partly drawn) [Compound 14, (2S)-Isopropyl 2-(((4-(aminomethyl)-5-hydroxy-6-methylpyridin-3-yl)methoxy)(phenoxy)phosphorylamino)propanoate] | 0 | 0.0 |
| CCC(CC)COC(=O)[C@H](C)NP(=O)(OCc1cnc(C)c(O)c1CN)Oc1ccccc1 (stereo partly drawn) [Compound 14i, (2S)-2-Ethylbutyl 2-(((4-(aminomethyl)-5-hydroxy-6-methylpyridin-3-yl)methoxy)(phenoxy)phosphorylamino)propanoate] | 0.17 | 4.0 |
| Cc1ncc(COP(=O)(NCC(=O)OC(C)C)Oc2ccccc2)c(CN)c1O (stereo not drawn) [Compound 14ii, Isopropyl 2-(((4-(aminomethyl)-5-hydroxy-6-methylpyridin-3-yl)methoxy)(phenoxy)phosphorylamino)acetate] | 0 | 0.0 |
| Cc1ncc(COP(=O)(N[C@@H](C)C(=O)OCc2ccccc2)Oc2ccccc2)c(CN)c1O (stereo partly drawn) [Compound 14iii, (2S)-Benzyl 2-(((4-(aminomethyl)-5-hydroxy-6-methylpyridin-3-yl)methoxy)(phenoxy)phosphorylamino)propanoate] | 0.7 | 6.7 |
| Cc1ncc(COP(=O)(N[C@@H](C)C(=O)OC(C)C)Oc2cccc3ccccc23)c(CN)c1O (stereo partly drawn) [Compound 14ix, (2S)-Isopropyl 2-(((4-(aminomethyl)-5-hydroxy-6-methylpyridin-3-yl)methoxy)(naphthalen-1-yloxy)phosphorylamino)propanoate] | 0.4 | 6.3 |
| Cc1ncc(COP(=O)(N[C@@H](C)C(=O)OC(C)C)Oc2ccc(Cl)cc2)c(CN)c1O (stereo partly drawn) [Compound 14v, (2S)-Isopropyl 2-(((4-(aminomethyl)-5-hydroxy-6-methylpyridin-3-yl)methoxy)(4-chlorophenoxy)phosphorylamino)propanoate] | 0.3 | 11.1 |
| Cc1ccc(OC(=O)[C@H](C)NP(=O)(OCc2cnc(C)c(O)c2CN)Oc2ccccc2)cc1 (stereo partly drawn) [Compound 14vii, (2S)-p-Tolyl 2-(((4-(aminomethyl)-5-hydroxy-6-methylpyridin-3-yl)methoxy)(phenoxy)phosphorylamino)propanoate] | 0.5 | 12.2 |
| [2H]C([2H])([2H])C(OC(=O)[C@H](C)NP(=O)(OCc1cnc(C)c(O)c1CN)Oc1ccccc1)C([2H])([2H])[2H] (stereo partly drawn) [Compound 14viii] | 0.3 | 17.6 |
| Cc1ncc(COP(=O)(N[C@@H](C)C(=O)OC2CCCC2)Oc2ccccc2)c(CN)c1O (stereo partly drawn) [Compound 14x, (2S)-Cyclopentyl 2-(((4-(aminomethyl)-5-hydroxy-6-methylpyridin-3-yl)methoxy)(phenoxy)phosphorylamino)propanoate] | 0.3 | 11.1 |
| Cc1ncc(COP(=O)(N[C@@H](C)C(=O)OC(C)C)Oc2ccc(OC(F)(F)F)cc2)c(CN)c1O (stereo partly drawn) [Compound 14xi, (2S)-Isopropyl 2-(((4-(aminomethyl)-5-hydroxy-6-methylpyridin-3-yl)methoxy)(4-(trifluoromethoxy)phenoxy)phosphorylamino)propanoate] | 0.3 | 17.6 |
| Cc1ncc(COP(=O)(N[C@@H](C)C(=O)Oc2ccc3c(c2)CCCC3)Oc2ccccc2)c(CN)c1O (stereo partly drawn) [Compound 14xii, (2S)-5,6,7,8-Tetrahydronaphthalen-2-yl 2-(((4-(aminomethyl)-5-hydroxy-6-methylpyridin-3-yl)methoxy)(phenoxy)phosphorylamino)propanoate] | 0.2 | 5.3 |
| [2H]C([2H])(NP(=O)(OCc1cnc(C)c(O)c1CN)Oc1ccccc1)C(=O)OC(C([2H])([2H])[2H])C([2H])([2H])[2H] (stereo not drawn) [Compound 14xiii] | 0.3 | 17.6 |
| Cc1ncc(COP(=O)(N[C@@H](Cc2ccc(OCc3ccccc3)cc2)C(=O)OC(C)C)Oc2ccccc2)c(CN)c1O (stereo partly drawn) [Compound 14xiv, (2S)-Isopropyl 2-(((4-(aminomethyl)-5-hydroxy-6-methylpyridin-3-yl)methoxy)(phenoxy)phosphorylamino)-3-(4-(benzyloxy)phenyl)propanoate] | 0.3 | 8.3 |
| Cc1ncc(COP(=O)(N[C@@H](C)C(=O)OC2CCN(C)CC2)Oc2ccccc2)c(CN)c1O (stereo partly drawn) [Compound 14xv, (2S)-1-Methylpiperidin-4-yl 2-(((4-(aminomethyl)-5-hydroxy-6-methylpyridin-3-yl)methoxy)(phenoxy)phosphorylamino)propanoate] | 0.3 | 10.3 |
| Cc1ccc(OP(=O)(N[C@@H](C)C(=O)OC(C)C)OCc2cnc(C)c(O)c2CN)cc1 (stereo partly drawn) [Compound 14xvi, (2S)-Isopropyl 2-(((4-(aminomethyl)-5-hydroxy-6-methylpyridin-3-yl)methoxy)(p-tolyloxy)phosphorylamino)propanoate] | 0.3 | 10.3 |
| Cc1ncc(COP(=O)(N[C@@H](C)C(=O)Oc2ccc(Cl)cc2)Oc2ccccc2)c(CN)c1O (stereo partly drawn) [Compound 14xvii, (2S)-4-Chlorophenyl 2-(((4-(aminomethyl)-5-hydroxy-6-methylpyridin-3-yl)methoxy)(phenoxy)phosphorylamino)propanoate] | 6.6 | 194.1 |
| Cc1ncc(COP(=O)(N[C@@H](C)C(=O)OC(C)C)Oc2ccc(Br)cc2F)c(CN)c1O (stereo partly drawn) [Compound 14xviii, (2S)-Isopropyl 2-(((4-(aminomethyl)-5-hydroxy-6-methylpyridin-3-yl)methoxy)(4-bromo-2-fluorophenoxy)phosphorylamino)propanoate] | 2.4 | 96.0 |
| Cc1ncc(CO[P@@](=O)(N[C@@H](C)C(=O)OC(C)C)Oc2ccccc2)c(CO)c1O [Compound 15i, (S)-Isopropyl 2-((S)-((5-hydroxy-4-(hydroxymethyl)-6-methylpyridin-3-yl)methoxy)(phenoxy)phosphorylamino)propanoate] | 0.15 | 2.6 |
| Cc1ncc(COP(=O)(N[C@@H](C)C(=O)OC(C)C)Oc2ccccc2)c(CO)c1O (stereo partly drawn) [Compound 15ii, (S)-Isopropyl 2-((R)-((5-hydroxy-4-(hydroxymethyl)-6-methylpyridin-3-yl)methoxy)(phenoxy)phosphorylamino)propanoate] | 0 | 0.0 |
| Cc1ncc(COP(=O)(N[C@@H](C)C(=O)OC(C)C)Oc2ccc(Cl)c(Cl)c2)c(CO)c1O (stereo partly drawn) [Compound 15iii, (2S)-Isopropyl 2-((3,4-dichlorophenoxy)((5-hydroxy-4-(hydroxymethyl)-6-methylpyridin-3-yl)methoxy)phosphorylamino)propanoate] | 0.4 | 7.4 |
| Cc1ncc(COP(=O)(N[C@@H](C)C(=O)Oc2ccc3ccccc3c2)Oc2ccccc2)c(CO)c1O (stereo partly drawn) [Compound 15iv, (2S)-Naphthalen-2-yl 2-(((5-hydroxy-4-(hydroxymethyl)-6-methylpyridin-3-yl)methoxy)(phenoxy)phosphorylamino)propanoate] | 0.65 | 6.2 |
